Values quoted from earlier work as cited in US20220142904A1, “A METHOD OF COLORING KERATINOUS MATERIAL COMPRISING THE USE OF AN ORGANOSILICON COMPOUND, A COLORING COMPOUND, A SEALING REAGENT, AND A MIXTURE OF SILICONES” (Henkel AG & Co. KGaA, priority 2019, published 2022).

Settings: for solubility in water: 25° C.

| solubility in water (in words) (water at 25° C.) | Compound | solubility in water |
| --- | --- | --- |
| highly soluble | O=C([O-])C1=NN(c2ccc(S(=O)(=O)[O-])cc2)C(=O)C1N=Nc1ccc(S(=O)(=O)[O-])cc1.[Na+].[Na+].[Na+] (centres unmarked) [Acid Yellow 23, trisodium salt of 4,5-dihydro-5-oxo-1-(4-sulfophenyl)-4-((4-sulfophenyl)azo)-1H-pyrazole-3-carboxylic acid] | – |
| – | O=S(=O)([O-])c1ccc(N=Nc2c(O)ccc3ccccc23)cc1.[Na+] [Acid Orange 7, sodium salt of 4-[(2-hydroxy-1-naphthyl)azo]benzene sulphonate] | more than 7 g/L |
| – | sodium salts of mono- and disulfonic acids of 2-(2-quinolyl)-1H-indene-1,3(2H)-dione [Acid Yellow 3] | 20 mg/mL |
| – | O=C([O-])c1c(Cl)c(Cl)c(Cl)c(Cl)c1-c1c2c(Br)cc(=O)c(Br)c-2oc2c(Br)c(O)cc(Br)c12.O=C([O-])c1c(Cl)c(Cl)c(Cl)c(Cl)c1-c1c2c(Br)cc(=O)c(Br)c-2oc2c(Br)c(O)cc(Br)c12.[Na+].[Na+] [Acid Red 92, disodium salt of 3,4,5,6-tetrachloro-2-(1,4,5,8-tetrabromo-6-hydroxy-3-oxoxanthen-9-yl)benzoic acid] | greater than 10 g/L |
| – | Nc1cc(S(=O)(=O)[O-])cc2cc(S(=O)(=O)[O-])c(N=Nc3ccccc3)c(O)c12.[Na+].[Na+] [Acid Red 33, disodium salt of 5-amino-4-hydroxy-3-(phenylazo)-naphthalene-2,7-disulphonate] | 2.5 mg/mL |
